How the values were obtained:
PKM2, human recombinant = target: T1, PKM2, human recombinant (Homo sapiens, UniProt P14618); test: PKM2 enzymatic activity assay (Kinase-Glo Plus luminescence); type: biochemical;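 on Max activity Group: percent increase over no-compound signal after subtracting the no-PKM2 background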
T1 construct: purchased BPS 50295
Method: PKM2 performs the following enzymatic reaction, where the PKM2 substrates, PEP (phosphoenolpyruvate) and ADP, are converted to pyruvate and ATP as follows:
All of the enzymatic reactions were conducted in duplicates at room temperature for 1 hour in a 50 μL mixture containing: • PKM2 assay buffer (50 mM Imidazole, pH 7.2; 7 mM MgCl2; 50 mM KCl; 0.01% Tween; • and 0.05% BSA), 0.1 mM ADP, 0.5 mM PEP, 0.1 nM PKM2 enzyme (PKM2, human recombinant (BPS catalog number 50295)) and the indicated test compound. Fructose 1,6 biphosphat e, (FBP (Sigma)) was used as a positive control for activation at concentration of 0.5 mM. After enzymatic reactions, 50 μL of Kinase-Glo® Plus reagent (Promega kit) was added to each well and luminescence was measured using a BioTek Synergy™ 2 microplate reader.
PKM2 activity assays were performed in duplicates at each concentration. The luminescence data were analyzed using the computer software, GraphPad PRISM®. In the absence of the compound, the luminescence was defined as 0% activity. The percent activity in the presence of each compound was calculated according to the following equation:
% Activity=[(L−Lb)/(Lt−Lb)−1]×100%
where L=the luminescence in the presence of the test compound, Lb=the luminescence in the absence of PKM2, and Lt=the luminescence intensity in the absence of the test compound. The % activity values versus a series of compound concentrations were plotted using non-linear regression analysis of Sigmoidal dose-response curve generated with the equation Y=B+(T−B)/1+10^((LogEC50-X)×Hill Slope), where Y=percent activity, B=minimum percent activity, T=maximum percent activity, X=logarithm of compound and Hill Slope=slope factor or Hill coefficient. The AC50 values, shown in Table 2 were determined for the indicated test compounds as the concentration causing a half-maximal percent activity.

[1] = test system: H1299 (Non-small cell lung carcinoma cell line); test: Cell proliferation index assay, Assay Protocol II (Fluofarma, flow cytometry); type: cell-based; conditions: Homo sapiens, NCI-H1299
Method: In a second assay to determine the inhibition of cell proliferation by a test compound, cell proliferation of the cell line of interest was measured by a cell proliferation index assay using Fluofarma (www.fluofarma.com) based technology. This assay is based on the dilution rate of a fluorescent membrane marker, which is a direct function of the number of cell divisions. Briefly, the assay is performed by loading the cells with a non-toxic fluorescent phospholipid analog before the seeding. […] Flow cytometry analysis of the fluorescent probe is performed after the loading of the cells both prior to, as well as after treatment with various concentrations of the test compound. The dilution rate of the fluorescent probe at the single cell level is directly correlated to the number of cell divisions.

[2] = H1299 nude mouse xenograft study, toxicity (body weight, deaths, organ weights); type: in vivo, mice; conditions: Gemcitabine 120 mg/kg ip q3d × 4
Method: (§1) The animals were fed ad libitum water (reverse osmosis, 1 ppm Cl) and NIH 31 Modified and Irradiated Lab Diet® consisting of 18.0% crude protein, 5.0% crude fat, and 5.0% crude fiber. The mice were housed on irradiated Enrich-o′ Cobs™ Laboratory Animal Bedding in static microisolators on a 12-hour light cycle at 20-22° C. (68-72° F.) and 40-60% humidity.
(§2) Dosing began on D1 in four groups of mice (n=12/group in Groups 1, 3, and 4; n=6 in Group 2). XT26 and its vehicle were administered intraperitoneally (i.p.) twice daily for 28 days (b.i.d.×28), starting with the p.m. dose on D1 and ending with the a.m. dose on D29. Gemcitabine was administered i.p. once daily at three-day intervals for four doses (q3d×4). In all groups, the dosing volume of 10 ml/kg (0.2 ml/20 g mouse) was scaled to the weight of each individual animal, as measured twice weekly.
(§3) Group 1 mice received the XT26 vehicle b.i.d.×28, and served as the controls for the study. Group 2 received gemcitabine at 120 mg/kg. Group 3 was to receive XT26 at 100 mg/kg b.i.d.×28; on D21, four mice (Animals 1, 3, 4, and 5) erroneously received 200 mg/kg XT26 for their a.m. dose. Group 4 was to receive XT26 at 200 mg/kg b.i.d.×28, but dosing stopped on D9 (b.i.d.×8) because of toxicity. Group 4 dosing at 200 mg/kg resumed on D17 on a qd (once daily)×13 dosing schedule. Because of a scheduling error, the D19 dose for Group 4 mice was omitted; qd dosing occurred on Days 17, 18, and 20-28.
Animals were weighed daily on D1-5, then twice weekly until the completion of the study. The mice were observed frequently for overt signs of any adverse, treatment-related side effects.
On D10, both kidneys and the liver were harvested from each euthanized Group 4 animal. Each organ was weighed separately, fixed overnight in 10% neutral buffered formalin, and transferred to 70% ethanol.

[3] = test system: H1299 Human Non-Small Cell Lung Carcinoma; test: H1299 human non-small cell lung carcinoma nude mouse xenograft model, tumor growth delay; type: in vivo, mice; conditions: for MTV (n) Day 28: median tumor volume of animals not at endpoint (n in brackets)
Method: as §1
H1299 (NCI-H1299) NSCLC cells were obtained from the American Type Culture Collection, which reports the cell line to have originated from a lymph node metastasis and to lack p53 expression. The cell line was maintained as exponentially growing cultures in RPMI-1640 medium supplemented with 10% fetal bovine serum, 2 mM glutamine, 100 units/mL penicillin G sodium, 100 μg/mL streptomycin sulfate, 25 μg/mL gentamicin, 10 mM HEPES, and 0.075% sodium bicarbonate. The tumor cells were cultured in tissue culture flasks in a humidified incubator at 37° C., in an atmosphere of 5% CO2 and 95% air.
H1299 tumor cells were harvested during log phase growth and suspended in cold PBS. Each nude mouse was inoculated subcutaneously in the right flank with 0.2 mL of the cell suspension (1×10^7 cells). The tumors were periodically calipered in two dimensions to monitor size as the mean volume approached the desired 90-130 mm^3 range. Tumor size was calculated by the following formula:
where w=width and l=length, in mm, of the tumor. Tumor weight may be estimated with the assumption that 1 mg is equivalent to 1 mm^3 of tumor volume.
Compound 13A (MW 467.51, code-named XT26) was provided as a powder stored at −20° C., and protected from light during storage and handling. Dosing suspensions, in 0.5% carboxymethyl cellulose and 1% Tween® 80 in deionized water (Vehicle), were prepared fresh for each dose, and kept at 4° C. post formulation. Gemcitabine (Gemzar®, Lilly, 38 mg/mL, Lot # A866884A) was stored at room temperature. A fresh 12 mg/mL gemcitabine dosing solution was prepared on each treatment day by diluting an aliquot of the stock solution with saline.
as §2
as §3, with “Group 4 was to receive XT26 at 200 mg/kg b.i.d.×28, but dosing stopped on D9 (b.i.d.×8) because of toxicity.” left out
Tumors were calipered twice weekly for the duration of the study, and each animal was euthanized when its neoplasm reached the predetermined endpoint volume (1200 mm^3) or at the end of the study, whichever came first. Animals that exited the study for tumor growth were documented as euthanized for tumor progression (TP), with the date of euthanasia. The time to endpoint (TTE) for each mouse was calculated by the following equation: […]
where TTE is expressed in days, endpoint volume is expressed in mm^3, b is the intercept, and m is the slope of the line obtained by linear regression of a log-transformed tumor growth data set.

[4] = Gemcitabine 120 mg/kg ip q3d × 4
[5] = Group 1 vs 2: Gemcitabine ip q3d × 4, 120 mg/kg

T1 sequence (P14618 whole entry): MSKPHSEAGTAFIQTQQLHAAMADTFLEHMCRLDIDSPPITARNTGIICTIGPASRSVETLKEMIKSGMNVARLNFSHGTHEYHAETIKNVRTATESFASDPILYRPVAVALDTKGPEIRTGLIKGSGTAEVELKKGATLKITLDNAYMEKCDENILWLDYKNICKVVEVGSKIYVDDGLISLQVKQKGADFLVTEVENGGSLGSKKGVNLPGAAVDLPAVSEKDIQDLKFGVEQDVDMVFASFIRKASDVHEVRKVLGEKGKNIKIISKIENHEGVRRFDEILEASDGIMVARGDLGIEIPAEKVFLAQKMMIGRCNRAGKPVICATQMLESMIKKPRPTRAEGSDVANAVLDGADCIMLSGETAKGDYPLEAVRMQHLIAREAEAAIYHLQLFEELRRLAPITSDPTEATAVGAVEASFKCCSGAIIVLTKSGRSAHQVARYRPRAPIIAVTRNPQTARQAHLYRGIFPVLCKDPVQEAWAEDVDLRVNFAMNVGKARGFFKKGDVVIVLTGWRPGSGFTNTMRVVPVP

AC50 (PKM2, human recombinant; 0.1 nM PKM2, 0.1 mM ADP, 0.5 mM PEP, 1 hour, room temperature, read-out: AC50 group) [nM] | Emax (PKM2, human recombinant; 1 h, maximum percent activity, luminescence without compound = 0% activity, read-out: Max activity Group) [%] | IC50 [1] [µM] | SMILES | Deaths NTR ([2]; non-treatment-related deaths) | Deaths TR ([2]; treatment-related deaths) | % TGD [3, 4] [%] | Regressions CR [3, 4] | Regressions PR [3, 4] | Regressions TFS [3, 4] | Median TTE ([3]; Gemcitabine 120 mg/kg ip q3d × 4, endpoint 1200 mm^3, 28-day study) [days] | MTV (n) Day 28 [3, 4] | MTV (n) Day 28 ([3]; Gemcitabine 120 mg/kg ip q3d × 4, listed as gemcitabine) [mm^3] | T − C ([3]; Gemcitabine 120 mg/kg ip q3d × 4, vs Group 1 vehicle) [days] | Median survival ([3]; Gemcitabine ip q3d × 4, 120 mg/kg (Column B = treated group)) | Are the survival curves sig different? [3, 5] | Hazard Ratio [3, 5] | response of tumor model to therapy ([3]; standard 120 mg/kg gemcitabine therapy)
≤ 1000 | 130 to 200 | < 40 | COc1ccc(C2CC(c3ccc(NS(=O)(=O)c4ccc(F)cc4)cc3)=NN2C(C)=O)cc1 (racemic) [Compound 6A, N-(4-(1-acetyl-5-(4-methoxyphenyl)-4,5-dihydro-1H-pyrazol-3-yl)phenyl)-4-fluorobenzenesulfonamide] |  |  |  |  |  |  |  |  |  |  |  |  |  | 
 |  | < 40 | COc1ccc(C2CC(c3ccc(NS(=O)(=O)c4c(F)cccc4F)cc3)=NN2C(C)=O)cc1 (stereo not drawn) [Compound 61A, N-(4-(1-acetyl-5-(4-methoxyphenyl)-4,5-dihydro-1H-pyrazol-3-yl)phenyl)-2,6-difluorobenzenesulfonamide] |  |  |  |  |  |  |  |  |  |  |  |  |  | 
 |  |  | Nc1ccn([C@@H]2O[C@H](CO)[C@@H](O)C2(F)F)c(=O)n1 [Gemcitabine, gemcitabine, reference compound] | 0 | 0 | 50 | 0 | 0 | 0 | 28.0 | 600 (5) mm^3 | 600 | 9.3 | Undefined | Yes | 11.48 | responded moderately well
